Results from paper PMC7235175, “Analysis of Pigment-Dispersing Factor Neuropeptides and Their Receptor in a Velvet Worm” (Frontiers in Endocrinology, 2020).
“Also recorded” adds a separate entry of the source.

System: PDF receptor Er-PDFR of E. rowelli
Assay: BRET assay: cAMP response (Epac-L sensor) of HEK293T cells transfected with Er-PDFR
Assay type: cell-based, Euperipatoides rowelli
Details: for activation of Er-PDFR (cAMP response) / potency of PDF-II relative to PDF-I as activating ligand: HEK293T, Epac-L BRET, n = 8; for activation of Er-PDFR (cAMP response): Rm-MIP7 as control (unrelated peptide); for potency of PDF-II relative to PDF-I as activating ligand: comparison of activation by the two peptides
Experimental: HEK293T cells were seeded on 96-well Nunc plates (Thermo Fisher Scientific, Waltham, MA, USA) at a density of 2 ×10^4 cells/well and cultured in DMEM high glucose (Sigma-Aldrich Chemie GmbH, Munich, Germany) supplemented with 10% fetal bovine serum and 5% CO2 at 37°C. After 24 h, cells were transfected using polyethyleneimine (25 kDa PEI, linear; Polysciences Europe GmbH, Hirschberg an der Bergstrasse, Germany) with GFP2-hEpac1E157-P881-Rluc8 [Epac-L; modified from ([83]–[85])] and pcDNA3.1-ErPDFR-3K10 in a 1:1 ratio (100 ng total DNA/well). Cells were washed with HBSS (Thermo Fisher Scientific) 2 days after transfection and stimulated with different concentrations of synthetic PDF peptides (10^−11 to 10^−5 M final concentration) together with the substrate coelenterazine 400A (“DeepBlueC”; BIOTREND Chemikalien GmbH, Cologne, Germany) at a final concentration of 5 μM in a total volume of 50 μL HBSS. Control experiments were conducted with cells expressing Epac-L alone, stimulation without PDF peptides, stimulation using an unrelated peptide (myoinhibitory peptide 7 from the cockroach Rhyparobia maderae), and stimulation with forskolin (50 μM final concentration; Sigma-Aldrich Chemie GmbH) + IBMX (100 μM final concentration; Sigma-Aldrich Chemie GmbH), respectively. The raw luminescence was measured immediately after stimulation at wavelengths of 410 ± 80 nm for the donor and 515 ± 30 nm for the acceptor in eight biological replicates for each tested PDF peptide concentration (n = 8) using a POLARstar Omega microplate reader (BMG Labtech, Cary, NC, USA). Their ratios [emission (410 nm)/emission (515 nm)] were box plotted as relative luminescence against the respective PDF concentration in dose response curves.

| Substance | activation threshold (minimum concentration required for PDFR stimulation) (HEK293T cells co-transfected with Epac-L and pcDNA3.1-ErPDFR-3K10 (1:1), peptide 10^−11 to 10^−5 M, coelenterazine 400A 5 μM in HBSS, emission 410/515 nm read immediately after stimulation, n = 8 biological replicates) | activation of Er-PDFR (cAMP response) (peptide 10^−11 to 10^−5 M) | potency of PDF-II relative to PDF-I as activating ligand | potency of PDF-II relative to PDF-I as activating ligand (listed as PDF-II) |
| --- | --- | --- | --- | --- |
| CNAELINSLLGLPKMMNDA-NH2 [Er-PDF-I, HPLC-purified synthetic pigment-dispersing factor peptide I of Euperipatoides rowelli] | 10^−6 M | activated by both PDF peptides of E. rowelli, Er-PDF-I and Er-PDF-II, in a dose-dependent manner; also recorded: activated by Er-PDF-I and Er-PDF-II in a distinct and dose-dependent manner | – | – |
| CNAELINSLLNLPQKLQEA-NH2 [Er-PDF-II, HPLC-purified synthetic pigment-dispersing factor peptide II of Euperipatoides rowelli] | – | activated by both PDF peptides of E. rowelli, Er-PDF-I and Er-PDF-II, in a dose-dependent manner; also recorded: activated by Er-PDF-I and Er-PDF-II in a distinct and dose-dependent manner | one order of magnitude more potent than Er-PDF-I | tenfold higher potency than PDF-I |
